{"source": "paper PMC4737580", "about": "(Bioorganic & medicinal chemistry letters, 2010)", "key": {"furin": {"target": "furin (Homo sapiens, UniProt P09958)", "sequence (P09958 108-794)": "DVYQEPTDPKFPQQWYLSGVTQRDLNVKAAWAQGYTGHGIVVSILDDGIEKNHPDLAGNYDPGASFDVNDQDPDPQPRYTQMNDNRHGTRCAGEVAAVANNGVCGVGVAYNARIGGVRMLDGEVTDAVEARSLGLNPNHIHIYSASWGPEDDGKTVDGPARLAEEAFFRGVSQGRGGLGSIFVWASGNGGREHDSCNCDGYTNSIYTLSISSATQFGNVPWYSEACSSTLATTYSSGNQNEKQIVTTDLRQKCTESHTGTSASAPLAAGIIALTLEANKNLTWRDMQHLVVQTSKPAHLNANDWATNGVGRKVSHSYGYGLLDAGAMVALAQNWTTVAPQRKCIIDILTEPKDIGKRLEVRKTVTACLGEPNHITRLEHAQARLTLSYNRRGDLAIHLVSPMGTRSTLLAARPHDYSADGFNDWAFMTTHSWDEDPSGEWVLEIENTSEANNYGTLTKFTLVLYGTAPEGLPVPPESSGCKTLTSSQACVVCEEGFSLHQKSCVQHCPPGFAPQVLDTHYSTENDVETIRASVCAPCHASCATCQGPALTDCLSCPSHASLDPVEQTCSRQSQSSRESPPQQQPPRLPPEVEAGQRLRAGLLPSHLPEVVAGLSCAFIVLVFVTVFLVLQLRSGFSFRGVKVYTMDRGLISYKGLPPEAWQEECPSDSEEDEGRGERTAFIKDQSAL", "assay": "Furin inhibition, Ki from Dixon plots", "format": "biochemical"}, "[1]": {"conditions": "general statement, no reference given; cited from earlier work"}}, "data": [{"smiles": "C/C(=N\\NC(=N)N)c1cc(NC(=O)CCCNC(=N)N)cc(/C(C)=N/NC(=N)N)c1", "note": "[Compound 17]", "values": [{"measurement": "fold improved Ki compared to 1", "setting": "furin; relative to compound 1", "result": "approximately 4 fold"}]}, {"smiles": "N=C(N)N/N=C/c1ccccc1OCc1ccc(Cl)cc1", "note": "[Compound 2]", "values": [{"measurement": "Ki", "setting": "furin; Ki, Ki values from Dixon plots", "result": 25, "unit": "µM"}]}, {"smiles": "N=C(N)N", "note": "[guanidine]", "values": [{"measurement": "pKa", "setting": "[1]", "result": "approximately 13"}]}]}
